In patent US9944991B2, “Compositions and methods for diagnosis, prognosis and treatment of hematological malignancies” (Dana-Farber Cancer Institute, Inc., priority 2012, dated 2018):
Entries after “also recorded” stand apart in the source; their conditions may differ.

How the values were obtained:
[1] = tested on: NF-κB p65; experiment: NF-κB p65 DNA-binding activity (Active Motif TransAM) in nuclear extracts; assay type: cell-based, human; details: BCWM.1 and MWCL.1; everolimus 1 nM or bortezomib 5 nM, 4 hours; TNF-α 10 ng/mL
Source text: NF-κB activity was investigated using the Active Motif TransAM kits, a DNA-binding enzyme-linked immunosorbent assay (ELISA)-based assay (Active Motif North America, Carlsbad, Calif.).

[2] = tested on: miR-155; experiment: qRT-PCR of miR-155 target genes in primary CLL cells; assay type: cell-based, human; details: 20 μM, 48 hours, vs scramble control
Method: (§1) Total RNA of cells was isolated with the RNeasy kit (Qiagen). cDNA was synthesized using the SuperScript cDNA synthesis kit (Invitrogen) and qRT-PCR reactions were performed using SYBR master mix (SA Bioscience) with designated primers relative to 18S expression by StepOnePlus™ Real-Time PCR System (Applied Biosystem) in triplicates. TaqMan® microRNA Assays kits (Applied Biosystem) were used for quantifying hsa-miR-155 levels relative to RNU6B expression.
(§2) The mRNA levels of the six miR-155 target genes, SMAD5, SOCS1, CEBPβ, MAFB, SHANK2 and SH3PXD2A, […] were next determined by qRT-PCR from primary WM CD19^+ cells, and primary CLL cells, normal donor blood CD19^+ cells, BCWM1 and MEC1 cells.

[3] = tested on: MEC1 cells; experiment: MTT cell survival / cytotoxicity assay; assay type: cell-based, human; details: 20 μM, 48 hours, vs scramble control
Method: (§3) To assess the uptake of antimiR-155 into BCWM1 or MEC1 cells, a 5′ FAM-labeled antimiR-155 was used and the antimiR was added directly to the cell suspension without any transfection reagent. The uptake of FAM-labeled antimiR-155 into BCWM1 cells was higher than 90% as judged by flow cytometry (data not shown), which indicates efficient delivery of the 8-mer antimiR into tumor cells. To further examine the functional effect of antimiR-155 on BCWM1 or MEC1, cell survival and cell proliferation was measured by MTT and [H]^3 thymidine uptake assays, respectively. […] Thus, miR-155 inhibition regulates cell proliferation, but not cell apoptosis.

[4] = tested on: BCWM1 cells; experiment: MTT cell survival / cytotoxicity assay; assay type: cell-based, human; details: 20 μM, 48 hours, vs scramble control
Method: as §3

[5] = tested on: miR-155; experiment: Gene expression profiling and qRT-PCR of miR-155 target mRNAs in BCWM1 cells; assay type: cell-based, human; details: vs scramble control
Method: Total RNA from BCWM1 cells treated with antimiR-155 or LNA scramble control oligonucleotide, respectively, for 48 hours, were isolated using RNeasy kit (Qiagen) as described by the manufacturer, and hybridized on an Affymetrix U133A 2.0 array chip (Affymetrix, Santa Clara, Calif.). GEP data were analyzed using dChip software (biosunl.harvard.edu/complab/dchip/). Candidate target mRNAs for miR-155 were identified by using the algorithms TargetScan (genes.mit.edu/targetscan/), PicTar (pictar.bio.nyu.edu/) and RNAhybrid (bibiserv.techfak.uni-bielefeld.de/rnahybrid/).
as §1
To identify new direct miR-155 targets in B cell lymphomas, gene expression profiling (GEP) was performed on BCWM.1 cells after treatment with antimiR-155 or scramble control for 24 or 48 hours. […]

[6] = tested on: miR-155; experiment: miR-155 target de-repression in xenograft mice (qRT-PCR of bone marrow CD19+ cells, immunostaining); assay type: in vivo, SCID mice
Method: (§4) Immediately after tail vein injection of mCherry-Luc+-BCWM1 cells (3×10^6/mouse) in SCID mice, the mice (6 mice/group) were treated with a single intravenous tail vein injection of 25 mg/kg with either antimiR-155 or LNA scramble control, followed by weekly maintenance doses of 5 mg/kg antimiR-155 or LNA scramble control until the mice were sacrificed. Mice were injected with 75 mg/kg luciferin (Caliper Life Sciences, Hopkinton, Mass.), followed by whole-body real-time bioluminescence imaging (Xenogen IVIS imaging system, Caliper Life Sciences, Hopkinton, Mass.) performed at Day 0, Day 14, and Day 19. Mice were sacrificed by inhalation of CO2. RNA was extracted from CD19+ cells isolated from one mouse femur by using CD19+ microbead selection. The other femur, liver, and spleen were fixed in formaldehyde.
Moreover, immunostaining confirmed de-repression of the MAFB and CEBPβ targets at the protein level in the bone marrow and spleen upon treatment with the antimiR-155 (FIG. 7D).

[7] = tested on: miR-155; experiment: qRT-PCR of miR-155 target genes in primary WM CD19+ cells; assay type: cell-based, human; details: 20 μM, 48 hours, vs scramble control
Method: as §1, §2

[8] = tested on: primary WM bone marrow stromal cells; experiment: Cytotoxicity on stromal cells in co-culture; assay type: cell-based, human; details: 20 μM, 48 hours
Method: (§5) To examine the effect of antimiR-155 on tumor progression in the context of the microenvironment, the miR-155 levels were first quantified in bone marrow stromal cells (mesenchymal stem cells) from WM patients in comparison to normal healthy donors. […] Consequently, 20 μM antimiR-155 or scramble control was added to a co-culture of BCWM1 and primary WM bone marrow stromal cells or MEC1 cells and primary WM bone marrow stromal cells, and then assessed for cell proliferation by MTT and [H]^3 thymidine uptake assays, respectively, after 48-hours. […] No effect on cell cytotoxicity on stromal cells was observed.

[9] = tested on: MEC1 cells; experiment: [H]3 thymidine uptake cell proliferation assay; assay type: cell-based, human; details: 20 μM, 48 hours, vs scramble control
Method: as §3

[10] = tested on: BCWM1 cells; experiment: [H]3 thymidine uptake cell proliferation assay; assay type: cell-based, human; details: 20 μM, 48 hours, vs scramble control
Method: as §3

[11] = tested on: MEC1 cells; experiment: Co-culture with primary WM bone marrow stromal cells, proliferation; assay type: cell-based, human; details: 20 μM, 48 hours
Method: as §5

[12] = tested on: BCWM1 cells; experiment: as above; assay type: cell-based, human; details: 20 μM, 48 hours
Method: as §5

[13] = tested on: MEC1 cells; experiment: Co-culture with stromal cells from wild-type or miR-155−/− mice, [H]3 thymidine uptake; assay type: cell-based, human; details: 20 μM, 48 hours, vs scramble control
Method: (§6) To further clarify whether antimiR-155 can affect both tumor cells and stromal cells, BCWM1 or MEC1 cells were treated with antimiR-155 or scramble control, followed by co-culturing of the treated cells with bone marrow stromal cells from wild-type mice in comparison with stromal cells from miR-155^−/− mice. Cell survival and cell proliferation were assessed by MTT assay and [H]^3 thymidine uptake assays, respectively, after 48-hour of co-culture.

[14] = tested on: BCWM1 cells; experiment: as above; assay type: cell-based, human; details: 20 μM, 48 hours, vs scramble control
Method: as §6

[15] = tested on: mCherry-Luc+-BCWM1 cells; experiment: Xenograft mouse model of WM, bioluminescent imaging of tumor burden; assay type: in vivo, SCID mice
Method: as §4
To assess the anti-tumor activity of antimiR-155 in vivo, a xenograft mouse model of WM was used. Six SCID mice per group were engrafted with 3×10^6 mCherry-Luc^+-BCWM1 cells, after which mice were injected with a loading dose of 25 mg/kg antimiR-155 or scramble control, which was followed by weekly maintenance doses of 5 mg/kg of each respective compound until the mice were sacrificed. Tumor burden was monitored using bioluminescent imaging (BLI) at Days 0, 14, and 19 after injection (FIG. 7A).

## CC(C)C[C@H](NC(=O)[C@H](Cc1ccccc1)NC(=O)c1cnccn1)B(O)O [bortezomib]
[1]
  TNF-α-induced NF-κB recruitment to the nucleus, single agents: similarly inhibited

## antimiR-155: fully LNA-modified 8-mer seed-targeting antimiR-155 (3′ATTACGAT 5′ (SEQ ID NO:9)) (fully LNA-modified, chemistry not fully specified; listed 3' to 5')
[2]
  mRNA levels of the six miR-155 targets: significant increase in the mRNA levels
[3]
  cell cytotoxicity: no change in cell cytotoxicity
[4]
  cell cytotoxicity: no change in cell cytotoxicity
[5]; 24 or 48 hours
  validated miR-155 target mRNAs (CEBPβ, SMAD5, SOCS1): up-regulated; also recorded: upregulated
[5]; 48 hours
  new miR-155 targets MAFB, SHANK2, SH3PXD2A mRNA: de-repressed; also recorded: upregulated
[6]; mouse, in vivo
  CEBPβ protein level in bone marrow and spleen (immunostaining): de-repression
  MAFB protein level in bone marrow and spleen (immunostaining): de-repression
[6]; vs scramble control
  mRNA levels of six miR-155 targets in bone marrow WM CD19+ cells: de-repressed
[7]
  mRNA levels of the six miR-155 targets: significant increase in the mRNA levels
[8]
  cell cytotoxicity on stromal cells: No effect
[9]
  cell proliferation: significant reduction in cell proliferation
[10]
  cell proliferation: significant reduction in cell proliferation
[11]
  tumor cell proliferation in co-culture: decreased tumor cell proliferation
[12]
  protective effect of bone marrow stromal cells on WM tumor cells: overcame the protective effect of bone marrow stromal cells
[12]; primary WM bone marrow stromal cells
  tumor cell proliferation in co-culture: decreased tumor cell proliferation
[13]
  tumor cell proliferation, co-culture with miR-155−/− stromal cells: not significantly
  tumor cell proliferation, co-culture with wild-type mice stroma: decreased tumor cell proliferation
[14]
  tumor cell proliferation, co-culture with miR-155−/− stromal cells: not significantly
  tumor cell proliferation, co-culture with wild-type mice stroma: decreased tumor cell proliferation
[15]; 25 mg/kg loading dose, weekly 5 mg/kg, Day 14 and Day 19, vs scramble control
  tumor burden (BLI): significant reduction in tumor burden; also recorded: significantly decreased tumor burden
[15]; antimiR-155 vs scramble control group
  body weight: No difference in body weight
